Experimental data taken from patent publication US7462615B2, “Inhibitors of cysteine proteases, the pharmaceutical compositions thereof and their therapeutic applications” (Hybrigenics SA, priority 2005, dated 2008).

Biological target: T1, MBP-SENP1 (Homo sapiens, UniProt Q9P0U3)
T1 construct: made in house; host or cells: E. coli BL21
T1 sequence (Q9P0U3 1-644): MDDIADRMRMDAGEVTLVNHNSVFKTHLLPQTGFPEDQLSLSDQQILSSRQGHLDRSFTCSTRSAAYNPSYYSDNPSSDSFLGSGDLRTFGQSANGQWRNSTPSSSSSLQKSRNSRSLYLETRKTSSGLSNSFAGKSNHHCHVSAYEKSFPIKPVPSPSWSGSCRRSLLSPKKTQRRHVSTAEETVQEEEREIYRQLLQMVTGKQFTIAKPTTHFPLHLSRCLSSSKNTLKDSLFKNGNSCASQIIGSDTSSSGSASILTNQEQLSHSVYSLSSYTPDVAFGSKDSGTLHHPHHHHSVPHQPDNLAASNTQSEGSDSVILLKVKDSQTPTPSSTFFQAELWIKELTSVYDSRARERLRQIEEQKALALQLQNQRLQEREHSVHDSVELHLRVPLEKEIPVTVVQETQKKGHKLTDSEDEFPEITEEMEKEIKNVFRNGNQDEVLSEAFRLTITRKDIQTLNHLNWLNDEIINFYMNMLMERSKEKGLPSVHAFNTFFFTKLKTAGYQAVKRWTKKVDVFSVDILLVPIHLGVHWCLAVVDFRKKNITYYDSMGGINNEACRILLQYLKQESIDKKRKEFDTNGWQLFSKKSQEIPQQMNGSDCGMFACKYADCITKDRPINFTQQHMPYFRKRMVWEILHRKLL
Experiment: SENP1 Activity Assay
Format: biochemical
Conditions: 200 nM SUMO-AMC; 1.8 nM enzyme; pre-incubated 30 minutes at 25° C., 60 minutes at 37° C.; sigmoidal fit; read-out: SENP1 (Inhibition of cysteine protease activities)
Protocol: The cDNA encoding SENP1 was obtained by PCR amplification from placenta mRNA. SENP1 cDNA was subcloned by PCR into a bacterial expression vector (pMAL-C2X; New England BioLabs, Inc). The sequence was ascertained by sequencing of the entire open reading frame. pMAL-C2-SENP1 was transformed into BL21 cells and grown in LB-ampicillin medium supplemented with glucose (2 g.l^−1). Fusion protein expression was induced by IPTG (0.5 mM). Bacterial cell lysates were harvested and lyzed in lysis buffer (Tris HCl 20 mM pH7.4; 1 mM EDTA; 200 mM NaCl; 0.5% Triton X-100; 10% glycerol; Protease Inhibitor Cocktail) followed by sonication. Proteins were affinity purified on amylose affinity resin (New England BioLabs, Inc). Bound materials were extensively washed in wash buffer (20 mM Tris HCl pH7.4; 200 mM NaCl; 1 mM EDTA; 0.5% Triton X-100; 10% glycerol) and eluted from the resin in 10 mM maltose-containing wash buffer. Proteins were dialyzed in dialysis buffer (Tris HCl pH 7.6 20 mM; NaCl 200 mM; DTT 1 mM; EDTA 1 mM; 10% Glycerol). Proteins purifications were analyzed on 4-12% NuPAGE (Invitrogen).
MBP-SENP1 was diluted in SENP1 buffer (50 mM Tris HCl; 0.5 mM EDTA; 5 mM DTT; 0.01% Triton X-100; Bovine Serum Albumin 0.05 mg.ml^−1 pH7.6). Compounds stocks (100 mM) were stored at −20° C. in DMSO. Compounds were tested at the following final concentrations: 100 μM; 33.3 μM; 11.1 μM; 3.7 μM; 1.23 μM; 412 nM; 137 nM; 45.7 nM; 15.2 nM; 5 nM.
Reactions were performed as duplicates in Black LJL 96 well plates (HE microplates; Molecular Devices; 20 μl final reaction volume). The substrate concentration for SENP1 was 200 nM SUMO-AMC (Chem. Biol., 2003, 10, p. 837-846) (Boston Biochem). The concentration of the enzyme (SENP1) in specificity assays was 1.8 nM. The concentrations were determined in order to perform specificity assays under initial velocities at fixed substrate concentration. Compounds were pre-incubated with enzymes for 30 minutes at 25° C. Reactions were initiated by addition of substrate to the plates containing the enzymes (+/− compounds) diluted in assay buffer. Reactions were incubated for 60 minutes at 37° C. Reactions were stopped by adding acetic acid (100 mM final). Readings were performed on a Pherastar Fluorescent Reader (BMG). λ Emission 380 nm; λ Excitation=460 nm. Data (mean values +/− standard deviation) were analyzed as % of control (no compound) and plotted as percentage versus the Log of the compound concentration using GraphPad (Prism). Data were fitted to a sigmoidal model (variable slope).

| Compound | IC50 [nM] |
| --- | --- |
| Cc1nnc2nc3c(nn12)-c1ccccc1C3=O [Example 1b/B, 3-Methyl-1,2,3a,4,10-pentaaza-cyclopenta[b]fluoren-9-one] | 706 |
| Nc1nnc2nc3c(nn12)-c1ccccc1C3=O [Example 1c/B, 3-Amino-1,2,3a,4,10-pentaaza-cyclopenta[b]fluoren-9-one] | 731 |
| CCc1nnc2nc3c(nn12)C(=O)c1ccccc1-3 [Example 1d/A, 1-Ethyl-2,3,4,10,10a-pentaaza-cyclopenta[b]fluoren-9-one] | > 100000 |
| CCCc1nnc2nc3c(nn12)C(=O)c1ccccc1-3 [Example 1e/A, 1-Propyl-2,3,4,10,10a-pentaaza-cyclopenta[b]fluoren-9-one] | 5880 |
| CCCc1nnc2nc3c(nn12)-c1ccccc1C3=O [Example 1e/B, 3-Propyl-1,2,3a, 4,10-pentaaza-cyclopenta[b]fluoren-9-one] | 694 |
| CCCCc1nnc2nc3c(nn12)C(=O)c1ccccc1-3 [Example 1f/A, 1-Butyl-2,3,4,10,10a-pentaaza-cyclopenta[b]fluoren-9-one] | > 100000 |
| CCCCc1nnc2nc3c(nn12)-c1ccccc1C3=O [Example 1f/B, 3-Butyl-1,2,3a,4,10-pentaaza-cyclopenta[b]fluoren-9-one] | 229 |
| O=C1c2ccccc2-c2nn3c(CO)nnc3nc21 [Example 1h/B] | 1020 |
| COCc1nnc2nc3c(nn12)C(=O)c1ccccc1-3 [Example 1i/A, 1-Methoxymethyl-2,3,4,10,10a-pentaaza-cyclopenta[b]fluoren-9-one] | 22100 |
| COCc1nnc2nc3c(nn12)-c1ccccc1C3=O [Example 1i/B, 3-Methoxymethyl-1,2,3a, 4,10-pentaaza-cyclopenta[b]fluoren-9-one] | 1090 |
| O=C1c2ccccc2-c2nc3nnc(C4CC4)n3nc21 [Example 1j/A, 1-Cyclopropyl-2,3,4,10,10a-pentaaza-cyclopenta[b]fluoren-9-one] | > 100000 |
| O=C1c2ccccc2-c2nc3nnc(Cc4ccccc4)n3nc21 [Example 1k/A, 1-Benzyl-2,3,4,10,10a-pentaaza-cyclopenta[b]fluoren-9-one] | > 100000 |

The remaining lines, values ahead:

| IC50 [nM] | Compound |
| --- | --- |
| > 100000 | 6-(7)-Chloro-1-methyl-2,3,4,10,10a-pentaaza-cyclopenta[b]fluoren-9-one [Example 3/A] |
| 415 | CCc1nnc2nc3c(nn12)-c1ccccc1C3=O [Example 1d/B, 3-Ethyl-1,2,3a, 4,10-pentaaza-cyclopenta[b]fluoran-9-one] |
| > 100000 | CC(C)Cc1nnc2nc3c(nn12)C(=O)c1ccccc1-3 [Example 1g/A, 1-Isobutyl-2,3,4,10,10a-pentaaza-cyclopenta[b]fluoren-9-one] |
| 954 | CC(C)Cc1nnc2nc3c(nn12)-c1ccccc1C3=O [Example 1g/B, 3-Isobutyl-1,2,3a,4,10-pentaaza-cyclopenta[b]fluoren-9-one] |
| 299 | O=C1c2ccccc2-c2nn3c(C4CC4)nnc3nc21 [Example 1j/B, 3-Cyclopropyl-1,2,3a,4,10-pentaaza-cyclopenta[b]fluoren-9-one] |
| 1210 | O=C1c2ccccc2-c2nn3c(Cc4ccccc4)nnc3nc21 [Example 1k/B, 3-Benzyl-1,2,3a,4,10-pentaaza-cyclopenta[b]fluoren-9-one] |
| 855 | Cc1nnc2nc3c(nn12)-c1ccc(Cl)cc1C3=O [Example 3/B, 7-Chloro-3-methyl-1,2,3a, 4,10-pentaaza-cyclopenta[b]fluoren-9-one] |

Test system: HCT116 colon cancer cells
Experiment: HCT116 Cell Viability and Proliferation Assay
Format: cell-based
Conditions: 72 hours, MTS, mean of three independent experiments, read-out: HCT116 GI50 D3
Protocol: HCT116 colon cancer cells were obtained from ATCC (American Type Culture Collection), and maintained in Mc Coy's 5A medium containing 10% FBS, 3 mM glutamine and 1% penicillin/streptomycin. Cells were incubated at 37° C. in a humidified atmosphere containing 5% CO2.
Cell viability was assayed using the MTS technique in 96-well culture plates (CellTiter 96® Aqueous Non-Radioactive Cell Proliferation Assay, Promega) according to the manufacturer's instructions. MTS (3-(4,5-dimethylthiazol-2-yl)-5(3-carboxymethoxyphenyl)-2-(4-sulfophenyl)-2H-tetra-zolium) is a MTT-derived tetrazolium that is reduced in metabolically active cells into a soluble, cell-permeant formazan. The amount of formazan, detected by its absorbance at 492 nm is proportional to the number of living, metabolically active cells.
10^3 HCT116 cells were seeded per well. 24 hours later, the medium was changed and the cells treated in triplicate with the following concentrations of each compound: 10 μM-3.33 μM-1.11 μM-370 nM-123 nM-41 nM-14 nM and 5 nM. The compounds were diluted in 100% DMSO, whose final concentration on cells was kept at 0.5%.
Cells were incubated with the compounds for 72 hours, and their viability then assayed by the addition of MTS for 2 hours. Absorbance at 492 nm was measured directly from the 96-well culture plates. GI50 (Growth Inhibition 50) concentrations for each compound were calculated using a sigmoidal variable slope fit (Prism 4.0, Graphpad Softwares). Values represent mean of three independent experiments.

| GI50 [nM] | Compound |
| --- | --- |
| 361 | 6-(7)-Chloro-1-methyl-2,3,4,10,10a-pentaaza-cyclopenta[b]fluoren-9-one [Example 3/A] |

Same assay, conditions: Homo sapiens, HCT-116, 72 hours, MTS, mean of three independent experiments, read-out: HCT116 GI50 D3

| GI50 [nM] | Compound |
| --- | --- |
| > 10000 | Cn1nc2nc3c(nc2n1)-c1ccccc1C3=O [Example 4a, 2-Methyl-2H-1,2,3,4,10-pentaaza-cyclopenta[b]fluoren-9-one] |
| > 10000 | O=C1c2ccccc2-c2nc3nn(Cc4ccccc4)nc3nc21 [Example 4b, 2-Benzyl-2H-1,2,3,4,10-pentaaza-cyclopenta[b]fluoren-9-one] |
